Test [1] has as its target kinase panel containing either 386 or 392 distinct kinases. Nature of the test: Kinase selectivity score S10 from competition binding panel. To be noted: compounds at 10 μM; 386 or 392 distinct kinases. Here is the method:
Competition binding assays used herein were developed, validated and performed as described in Fabian et al., Nature Biotechnology 2005, 23, 329-336. Kinases were produced as fusions to T7 phage (See, Fabian et al. or WO04/015142) or alternatively, the kinases were expressed in HEK-293 cells and subsequently tagged with DNA for PCR detection (See, WO08/005310). For the binding assays, streptavidin-coated magnetic beads were treated with biotinylated affinity ligands for 30 min at room temperature to generate affinity resins. The liganded beads were blocked with excess biotin and washed with blocking buffer (SeaBlock (Pierce), 1% BSA, 0.05% Tween 20, 1 mM DTT) to remove unbound ligand and to reduce non-specific binding. Binding reactions were assembled by combining kinase, liganded affinity beads, and test compounds in 1× binding buffer (20% SeaBlock, 0.17×PBS, 0.05% Tween 20, 6 mM DTT). Test compounds were prepared as 100× stocks in DMSO and diluted into the aqueous environment. Kds were determined using an eleven point threefold serial dilutions. DMSO or control compounds were was added to control assays lacking a test compound. Primary screen assays were performed in polypropylene 384-well plates in a final volume of 20-40 μL, while Kd determinations were performed in polystyrene 96-well plates in a final volume of 135 μL. The assay plates were incubated at room temperature with shaking for 1 hour to allow the binding reactions to reach equilibrium, and the affinity beads were washed extensively with wash buffer (1×PBS, 0.05% Tween 20) to remove unbound protein. The beads were then resuspended in elution buffer (1×PBS, 0.05% Tween […] non-biotinylated affinity ligand) and incubated at room temperature with shaking for 30 min. The kinase concentration in the eluates was measured by quantitative PCR.
A selectivity score (S10) is a quantitative measure of selectivity of a compound against a panel of kinases. An S10 was calculated for a compound by dividing the number of kinases found to have a percent of control (DMSO) less than 10 by the total number of distinct kinases tested (excluding mutant variants). Percent of control (POC) is calculated by subtracting the signal of the control compound (POC=0) from the signal of the test compound and dividing the outcome by the signal of DMSO (POC=100) minus the signal of the control compound. For the compounds disclosed herein, S10 scores were obtained by testing the compounds at 10 μM concentration in a kinase panel containing either 386 or 392 distinct kinases.

The target in the next test is CSF1R (Homo sapiens, UniProt P07333). Nature of the test: Competition binding assay, CSF1R Kd. Also noted: made in house. The essentials: (§1)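 Kd values came from eleven-point threefold dilutions of compound, measured by qPCR of kinase eluted from affinity-ligand beads after 1 h equilibrium binding at room temperature. Kinase was either T7-phage fused or HEK-293-expressed with a DNA tag.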

The target of a further test is T1, PDGFRβ (Homo sapiens, UniProt P09619).
T1 construct: made in house
As to the kind of experiment: Competition binding assay, PDGFRβ Kd. The essentials:
as §1

A further test concerns the target T2, KIT (Homo sapiens, UniProt P10721).
T2 construct: made in house
Nature of the test: Competition binding assay, KIT Kd. The essentials:
as §1

The subject of another test is M-NFS-60 cells. As to the kind of experiment: M-NFS-60 cell proliferation assay (Alamar Blue). To be noted: Mus musculus; 72 hours incubation, M-CSF 20 ng/mL; read-out: CSF1R M-NFS-60 CTB:IC50. In kind it is cell-based, mouse. The essentials:
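Mouse M-NFS-60 cells growing on 20 ng/mL M-CSF in RPMI/10% FBS were exposed to compounds (9 half-log concentrations, 0.5% DMSO) for 72 h at 37 °C. Viability read by Alamar Blue fluorescence (ex 560/em 590 nm, 3 h). IC50 = 50% proliferation inhibition versus control, mean of duplicates.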
(In general: Alamar Blue is a resazurin reagent that responds to reducing activity.)

This is an account of results in US9938261B2, “Heterocyclic compounds and methods of use thereof” (AMBIT BIOSCIENCES CORPORATION, priority 2011, dated 2018).

Broadly, the Kd is the equilibrium constant for the complex coming apart. A higher Kd goes with lower affinity. The IC50 is the point on the concentration scale where inhibition reaches its midpoint.

Sequence of CSF1R (P07333 20-972): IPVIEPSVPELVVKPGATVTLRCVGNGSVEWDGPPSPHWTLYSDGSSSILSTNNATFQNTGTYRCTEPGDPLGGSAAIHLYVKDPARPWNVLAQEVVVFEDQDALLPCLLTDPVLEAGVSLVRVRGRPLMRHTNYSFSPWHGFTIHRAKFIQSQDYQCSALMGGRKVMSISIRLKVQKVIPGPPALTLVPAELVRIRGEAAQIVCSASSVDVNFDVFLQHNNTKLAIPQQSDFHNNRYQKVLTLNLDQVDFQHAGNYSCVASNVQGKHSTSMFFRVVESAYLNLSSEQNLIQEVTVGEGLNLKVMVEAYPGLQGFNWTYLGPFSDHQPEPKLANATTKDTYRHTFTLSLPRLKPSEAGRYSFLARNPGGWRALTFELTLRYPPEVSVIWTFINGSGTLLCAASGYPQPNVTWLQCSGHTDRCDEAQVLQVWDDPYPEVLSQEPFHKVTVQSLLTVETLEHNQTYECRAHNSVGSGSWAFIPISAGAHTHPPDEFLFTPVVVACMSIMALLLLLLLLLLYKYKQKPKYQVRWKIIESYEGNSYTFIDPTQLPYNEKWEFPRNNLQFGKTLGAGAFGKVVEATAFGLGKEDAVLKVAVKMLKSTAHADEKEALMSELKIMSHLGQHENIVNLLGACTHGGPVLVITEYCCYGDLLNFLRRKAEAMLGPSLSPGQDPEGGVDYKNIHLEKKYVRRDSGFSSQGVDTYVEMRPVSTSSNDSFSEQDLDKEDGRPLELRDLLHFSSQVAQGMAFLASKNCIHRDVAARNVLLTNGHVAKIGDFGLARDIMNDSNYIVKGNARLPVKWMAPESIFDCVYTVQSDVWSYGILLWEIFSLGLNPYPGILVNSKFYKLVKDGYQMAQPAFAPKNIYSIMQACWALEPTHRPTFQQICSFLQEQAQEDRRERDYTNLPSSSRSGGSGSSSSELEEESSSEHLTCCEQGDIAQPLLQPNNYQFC
T1 sequence (P09619 33-1106): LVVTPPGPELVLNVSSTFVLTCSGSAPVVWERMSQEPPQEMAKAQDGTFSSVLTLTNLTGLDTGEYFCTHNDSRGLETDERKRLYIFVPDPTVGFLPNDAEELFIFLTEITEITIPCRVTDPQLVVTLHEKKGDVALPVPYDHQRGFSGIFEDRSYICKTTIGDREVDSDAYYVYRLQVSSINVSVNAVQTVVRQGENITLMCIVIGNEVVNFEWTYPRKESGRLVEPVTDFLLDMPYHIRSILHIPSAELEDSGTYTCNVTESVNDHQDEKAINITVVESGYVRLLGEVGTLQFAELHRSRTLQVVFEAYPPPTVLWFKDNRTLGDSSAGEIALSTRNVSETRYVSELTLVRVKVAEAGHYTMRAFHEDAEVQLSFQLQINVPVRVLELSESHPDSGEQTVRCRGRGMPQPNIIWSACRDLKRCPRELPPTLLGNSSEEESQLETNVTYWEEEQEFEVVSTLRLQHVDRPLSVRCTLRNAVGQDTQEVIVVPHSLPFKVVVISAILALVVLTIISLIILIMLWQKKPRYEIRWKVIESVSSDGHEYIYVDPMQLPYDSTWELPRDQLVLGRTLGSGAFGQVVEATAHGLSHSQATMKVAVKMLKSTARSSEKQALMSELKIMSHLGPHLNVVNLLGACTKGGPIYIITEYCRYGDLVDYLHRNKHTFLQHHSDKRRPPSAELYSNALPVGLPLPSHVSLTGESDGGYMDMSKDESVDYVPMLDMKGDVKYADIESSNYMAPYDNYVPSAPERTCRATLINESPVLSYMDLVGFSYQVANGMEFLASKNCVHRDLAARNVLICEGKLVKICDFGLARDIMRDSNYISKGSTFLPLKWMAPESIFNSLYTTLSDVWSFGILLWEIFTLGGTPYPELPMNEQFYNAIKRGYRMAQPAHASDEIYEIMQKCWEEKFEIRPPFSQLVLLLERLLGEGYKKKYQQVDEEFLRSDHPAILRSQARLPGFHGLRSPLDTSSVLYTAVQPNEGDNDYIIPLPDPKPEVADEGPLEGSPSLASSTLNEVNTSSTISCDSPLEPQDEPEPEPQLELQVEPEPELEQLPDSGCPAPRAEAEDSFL
T2 sequence (P10721 26-976): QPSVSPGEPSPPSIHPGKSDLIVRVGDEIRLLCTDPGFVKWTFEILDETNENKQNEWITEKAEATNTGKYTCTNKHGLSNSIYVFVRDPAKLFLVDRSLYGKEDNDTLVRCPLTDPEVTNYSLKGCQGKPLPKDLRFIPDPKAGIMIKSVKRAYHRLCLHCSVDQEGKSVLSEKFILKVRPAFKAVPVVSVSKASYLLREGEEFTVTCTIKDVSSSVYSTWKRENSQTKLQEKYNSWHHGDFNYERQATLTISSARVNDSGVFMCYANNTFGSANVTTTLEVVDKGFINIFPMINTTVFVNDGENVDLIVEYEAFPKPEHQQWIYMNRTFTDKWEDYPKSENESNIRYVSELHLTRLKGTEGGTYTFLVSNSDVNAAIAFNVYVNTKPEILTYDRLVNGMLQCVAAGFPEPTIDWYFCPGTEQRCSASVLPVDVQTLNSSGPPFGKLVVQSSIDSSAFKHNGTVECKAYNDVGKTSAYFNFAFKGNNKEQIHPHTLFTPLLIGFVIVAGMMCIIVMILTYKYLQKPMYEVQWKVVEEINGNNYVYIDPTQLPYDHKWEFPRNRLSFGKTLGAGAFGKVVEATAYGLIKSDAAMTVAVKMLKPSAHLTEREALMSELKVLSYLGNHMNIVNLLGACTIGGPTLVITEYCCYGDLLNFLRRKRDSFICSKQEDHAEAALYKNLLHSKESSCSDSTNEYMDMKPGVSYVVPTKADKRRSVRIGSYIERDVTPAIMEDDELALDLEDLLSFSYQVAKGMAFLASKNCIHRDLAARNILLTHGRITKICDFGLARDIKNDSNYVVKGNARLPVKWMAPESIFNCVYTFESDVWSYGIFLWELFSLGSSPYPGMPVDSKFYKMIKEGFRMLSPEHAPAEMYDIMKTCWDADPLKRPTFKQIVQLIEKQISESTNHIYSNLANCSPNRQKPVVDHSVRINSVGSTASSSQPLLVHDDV

On to `COc1cc2ncn(Cc3ccc4nc(N[C@@H]5CCCC[C@H]5O)sc4c3)c2cc1Br` [Example 47, (1R,2R)-2-((6-((6-bromo-5-methoxy-1H-benzo[d]imidazol-1-yl)methyl)benzo[d]thiazol-2-yl)amino)cyclohexanol], for which, in test [1], the “Kinase specificity S(10)” value is listed as “B (0.01<B≤0.02)”. In addition, the Kd at CSF1R was 5 to 20 nM; at PDGFRβ, 50 to 500 nM; on KIT it was no more than 100 nM. For the same compound, the IC50 in the test on M-NFS-60 cells was no more than 50 nM.

In the case of `O[C@@H]1CCCC[C@H]1Nc1nc2ccc(Cn3cnc4cncnc43)cc2s1` [Example 48, (1R,2R)-2-((6-((9H-purin-9-yl)methyl)benzo[d]thiazol-2-yl)amino)cyclohexanol], in test [1], the “Kinase specificity S(10)” value is given as “A (A≤0.01)”. For the same compound, the Kd on CSF1R was in the range of 5 to 20 nM; on PDGFRβ, 50 to 500 nM; at KIT it was 500 to 2000 nM. Moreover, the IC50 with M-NFS-60 cells lay in the range of 50 to 400 nM.

In the case of `COc1cc2c(cc1Br)ncn2Cc1ccc2nc(N[C@@H]3c4ccccc4C[C@H]3O)sc2c1` [Example 49, (1R,2R)-1-((6-((5-bromo-6-methoxy-1H-benzo[d]imidazol-1-yl)methyl)benzo[d]thiazol-2-yl)amino)-2,3-dihydro-1H-inden-2-ol], the “Kinase specificity S(10)” value in test [1] is “A (A≤0.01)”. The Kd is 5 to 20 nM on CSF1R, 500 to 2000 nM on PDGFRβ and 500 to 2000 nM at KIT. The IC50 in the test with M-NFS-60 cells was 50 to 400 nM.

On to `COc1cc2c(cc1-c1cnn(C)c1)ncn2Cc1ccc2nc(N[C@@H]3CCCC[C@H]3O)sc2c1` [Example 51, (1R,2R)-2-((6-((6-methoxy-5-(1-methyl-1H-pyrazol-4-yl)-1H-benzo[d]imidazol-1-yl)methyl)benzo[d]thiazol-2-yl)amino)cyclohexanol], for which, in test [1], the “Kinase specificity S(10)” value is “C (C>0.02)”. Moreover, the Kd was no more than 5 nM at CSF1R, no more than 50 nM on PDGFRβ and no more than 100 nM on KIT. In the test on M-NFS-60 cells, the IC50 is no more than 50 nM.

On to `COc1cc2ncn(Cc3ccc4nc(N[C@@H]5CCCC[C@H]5O)sc4c3)c2cc1-c1cnn(C)c1` [Example 52, (1R,2R)-2-((6-((5-methoxy-6-(1-methyl-1H-pyrazol-4-yl)-1H-benzo[d]imidazol-1-yl)methyl)benzo[d]thiazol-2-yl)amino)cyclohexanol], for which the “Kinase specificity S(10)” value in test [1] is “C (C>0.02)”. Further, the Kd is no more than 5 nM on CSF1R, 50 to 500 nM on PDGFRβ and no more than 100 nM on KIT. For the same compound, the IC50 in the test on M-NFS-60 cells is 50 to 400 nM.

As to `COc1cc2ncn(Cc3ccc4nc(N[C@@H]5CCCC[C@H]5O)sc4c3)c2cc1C#N` [Example 53, 1-((2-(((1R,2R)-2-hydroxycyclohexyl)amino)benzo[d]thiazol-6-yl)methyl)-5-methoxy-1H-benzo[d]imidazole-6-carbonitrile], in test [1], the “Kinase specificity S(10)” value is listed as “B (0.01<B≤0.02)”. For the same compound, the results for the Kd at CSF1R, at PDGFRβ and at KIT were 5 to 20 nM, 50 to 500 nM and 100 to 500 nM, respectively. Moreover, the IC50 with M-NFS-60 cells was no more than 50 nM.

`O=C1CCCC[C@H]1Nc1nc2ccc(Cn3cnc4cccnc43)cc2s1` [Example 54, (R)-2-((6-((3H-imidazo[4,5-b]pyridin-3-yl)methyl)benzo[d]thiazol-2-yl)amino)cyclohexanone]: the “Kinase specificity S(10)” value in test [1] is “A (A≤0.01)”. The Kd on CSF1R was 20 to 50 nM; at PDGFRβ it was 50 to 500 nM; on KIT, 100 to 500 nM. The IC50 in the test on M-NFS-60 cells was 50 to 400 nM.

Take `O[C@@H]1CCCC[C@H]1Nc1nc2ccc(Cn3cnc4cc(Cl)cnc43)cc2s1` [Example 55, (1R,2R)-2-((6-((6-chloro-3H-imidazo[4,5-b]pyridin-3-yl)methyl)benzo[d]thiazol-2-yl)amino)cyclohexanol]: in test [1], the “Kinase specificity S(10)” value was “B (0.01<B≤0.02)”. The Kd on CSF1R is 5 to 20 nM; on PDGFRβ, no more than 50 nM; at KIT it was no more than 100 nM. Further, in the test on M-NFS-60 cells, the IC50 is no more than 50 nM.

For the compound `O[C@@H]1CCCC[C@H]1Nc1nc2ccc(Cn3cnc4cccnc43)cc2o1` [Example 56, (1R,2R)-2-((6-((3H-imidazo[4,5-b]pyridin-3-yl)methyl)benzo[d]oxazol-2-yl)amino)cyclohexanol], in test [1], the “Kinase specificity S(10)” value is on record as “C (C>0.02)”. Moreover, the values for the Kd on CSF1R, on PDGFRβ and on KIT were 5 to 20 nM, no more than 50 nM and no more than 100 nM, respectively. Further, the IC50 in the test on M-NFS-60 cells is 50 to 400 nM.

Turning to `O[C@@H]1Cc2ccccc2[C@H]1Nc1nc2ccc(Cn3cnc4cccnc43)cc2o1` [Example 57, (1R,2R)-1-((6-((3H-imidazo[4,5-b]pyridin-3-yl)methyl)benzo[d]oxazol-2-yl)amino)-2,3-dihydro-1H-inden-2-ol], the “Kinase specificity S(10)” value in test [1] is on record as “C (C>0.02)”. Moreover, the figures for the dissociation constant (Kd) at CSF1R, at PDGFRβ and on KIT were no more than 5 nM, no more than 50 nM and no more than 100 nM, respectively. Further, the IC50 with M-NFS-60 cells was 50 to 400 nM.

On to `ON=C1CCCC[C@H]1Nc1nc2ccc(Cn3cnc4cccnc43)cc2s1` [Example 58, (R)-2-((6-((3H-imidazo[4,5-b]pyridin-3-yl)methyl)benzo[d]thiazol-2-yl)amino)cyclohexanone oxime], for which the “Kinase specificity S(10)” value in test [1] was “B (0.01<B≤0.02)”. The values for the Kd at CSF1R, at PDGFRβ and at KIT were no more than 5 nM, no more than 50 nM and no more than 100 nM, respectively. In the test with M-NFS-60 cells, the IC50 fell in the range of 50 to 400 nM.

`O[C@@H]1CCCC[C@H]1Nc1nc2ccc(Cn3cnc4cc(Br)cnc43)cc2o1` [Example 61, (1R,2R)-2-((6-((6-bromo-3H-imidazo[4,5-b]pyridin-3-yl)methyl)benzo[d]oxazol-2-yl)amino)cyclohexanol]: in test [1], the “Kinase specificity S(10)” value was “C (C>0.02)”. Also, the figures for the Kd at CSF1R, on PDGFRβ and at KIT were 5 to 20 nM, no more than 50 nM and no more than 100 nM, respectively. In the test on M-NFS-60 cells, the IC50 was no more than 50 nM.

Consider `O[C@@H]1Cc2ccccc2[C@H]1Nc1nc2ccc(Cn3cnc4cc(Br)cnc43)cc2o1` [Example 62, (1R,2R)-1-((6-((6-bromo-3H-imidazo[4,5-b]pyridin-3-yl)methyl)benzo[d]oxazol-2-yl)amino)-2,3-dihydro-1H-inden-2-ol], for which the “Kinase specificity S(10)” value in test [1] is recorded as “C (C>0.02)”. Further, the Kd is no more than 5 nM at CSF1R, no more than 50 nM on PDGFRβ and no more than 100 nM on KIT. In addition, the IC50 in the test on M-NFS-60 cells was no more than 50 nM.

Turning to `OC[C@@H](Nc1nc2ccc(Cn3cnc4cccnc43)cc2s1)C1CCCCC1` [Example 63, (S)-2-((6-((3H-imidazo[4,5-b]pyridin-3-yl)methyl)benzo[d]thiazol-2-yl)amino)-2-cyclohexylethanol], in test [1], the “Kinase specificity S(10)” value is “C (C>0.02)”. In addition, the figures for the Kd at CSF1R, at PDGFRβ and at KIT were 5 to 20 nM, no more than 50 nM and no more than 100 nM, respectively. In the test with M-NFS-60 cells, the IC50 fell in the range of 50 to 400 nM.

For `OC[C@H](Nc1nc2ccc(Cn3cnc4cccnc43)cc2s1)C1CCCCC1` [Example 64, (R)-2-((6-((3H-imidazo[4,5-b]pyridin-3-yl)methyl)benzo[d]thiazol-2-yl)amino)-2-cyclohexylethanol], the “Kinase specificity S(10)” value in test [1] is listed as “C (C>0.02)”. The Kd was 5 to 20 nM on CSF1R, no more than 50 nM at PDGFRβ and no more than 100 nM on KIT. Moreover, in the test with M-NFS-60 cells, the IC50 fell in the range of 50 to 400 nM.

On to `COc1cc2c(cc1C#N)ncn2Cc1ccc2nc(N[C@@H]3CCCC[C@H]3O)sc2c1` [Example 65, 1-((2-(((1R,2R)-2-hydroxycyclohexyl)amino)benzo[d]thiazol-6-yl)methyl)-6-methoxy-1H-benzo[d]imidazole-5-carbonitrile], for which the “Kinase specificity S(10)” value in test [1] was “B (0.01<B≤0.02)”. The Kd is 5 to 20 nM on CSF1R, greater than 2000 nM on PDGFRβ and 500 to 2000 nM at KIT. For the same compound, in the test with M-NFS-60 cells, the IC50 fell in the range of 50 to 400 nM.
